US20040019118A1, “NMDA receptor antagonists and their use in inhibiting abnormal hyperphosphorylation of microtubule associated protein tau” (priority 2002, published 2004)
“Also recorded” adds a separate entry of the source.

How the values were obtained:
[1] = biological target: T1, PP-2A (Rattus norvegicus, UniProt P63331); experiment: PP-2A activity in extracts of treated hippocampal slice cultures; format: cell-based
T1 construct: from tissue; host or cells: organotypic culture of adult rat hippocampal slices; 16,000xg extract
Method: (§1) Organotypic cultures of rat hippocampal slices were prepared from 20-30 day old Wistar rats and cultured with the interface method as described previously (Stoppini, et al. 1991; Bahr, et al. 1995; Zhongrin, et al. 2000). The rats were anesthetized with ketamine (100 mg/kg body weight) and decapitated and the hippocampi were dissected out and sliced into 400 um coronal sections by a McIllwain tissue chopper. Select slices with uninterrupted bright transparent neuronal layers were plated, 1-3 slices/filter, onto Millicell CM filters (Millipore, Bedford, Mass.). For the first 2 days in vitro (DIV) cultures were maintained in 25% horse serum, 50% Basal Media-Eagle (BEM), 25% Eagle's Balanced Salt Solution (EBSS), 25 mM HEPES, 1 mM glutamine, 28 mM glucose, pH 7.2, at 32° C. in a 5% CO2 humidified atmosphere. The slice cultures were then switched to 25% horse serum, 50% BEM and EBSS modified so that the potassium concentration was 2.66 mM, for another 5 DIV. After 7 DIV, the cultures were maintained in physiological potassium containing 5% horse serum medium at 35° C. for at least 20 days before any treatment was applied. When the slices were treated, the reagents were applied into the culture medium. At different time points, the slices collected with a brush were washed twice in homogenizing buffer (50 mM HEPES, pH 7.0, 10 mM β-merceptoethanol [BME], 1 mM EDTA, 1 mM EGTA, 0.1 mM phenylmethyl sulfonyl fluoride [PMSF], 2.0 mM benzamidine and 2.0 μg/ml each of aprotinin, leupeptin and pepstatin) and homogenized at 4° C. using a Teflon-glass homogenizer. The homogenate was then divided into two parts, one was centrifuged at 16000×g for 15 min and the supernatant was used to assay activities of PP-2A and PP-1. The rest of the homogenate was diluted 1:1 with a phosphatase inhibitor cocktail (20 mM β-glycerophosphate, 2 mM Na3VO4 and 100 mM NaF, pH 7.0) and either used for Western blots or centrifuged at 16000×g for 15 min and the resulting supernatant used to determine the kinase activities.
Activities of PP-2A and PP-1 were assayed towards [^32P] phosphorylase-a as a substrate as described previously (Gong, et al. 1994). The phosphatase activity was assayed in 20 μl of reaction mixture containing 50 mM Tris, pH 7.0, 10 mM BME, 0.1 mM EDTA, 7.5 mM caffeine, 7.5 ng/μl [^32P]phosphorylase-a and 0.06 mg/ml slice culture extract. The reaction was started by adding ^32P-phosphorylase-a. After incubation for 30 min at 30° C., 7 μl of the reaction mixture was spotted on to 31 ETCHR chromatography paper which had been prespotted with 10 μl stop solution (4 mM ATP+20% TCA). Then the ^32p released was separated from the protein-incorporated ^32P by paper chromatography in 5% TCA and 0.2 M NaCl, paper strips dried, cut and counted by Cerenkov radiation. A PP-1 specific inhibitor, inhibitor-1 (Hitken, et al. 1982) was included in the assays for PP-2A activity. PP-1 activity was calculated by subtracting the PP-2A activity from the total phosphorylase-a phosphatase activity (PP-1/PP-2A) assayed in the absence of inhibitor-1.

[2] = test system: CaMKII; experiment: CaMKII activity in extracts of treated hippocampal slice cultures; format: cell-based, rat
Method: as §1
CaMKII activity was measured in 25 μl of buffer containing 50 mM HEPES, pH 7.5, 10 mM MgCl2, 2.0 mM CaCl2, 10 mM BME, 10 μg/ml calmodulin (CaM), 20 μM syntide (Sigma, St Louis Mo., USA), 0.06 mg/ml slice extract and 200 μM [γ^32P]ATP. The reaction was initiated by adding [γ32p] ATP. After incubation for 10 min at 30° C., 10 μl reaction mixture was removed and spotted on to phosphocellulose membrane. The membrane was then washed five times in 1% phosphoric acid to remove non-protein incorporated ^32P, dried and counted by Cerenkov radiation. The activity of PKA was determined as above except the reaction mixture contained 70 mM NaHPO4, pH 6.8, 14 mM MgCl2, 1.4 mM EDTA, 30 μM malantide (Sigma, St Louis, Mo., USA), 200 μM [γ^32p] ATP and 0.06 mg/ml slice extract.

[3] = test system: MAPK; experiment: MAPK activity in extracts of treated hippocampal slice cultures; format: cell-based, rat
Method: as §1, with “The” for “Organotypic cultures of rat hippocampal slices were prepared from 20-30 day old Wistar rats and cultured with the interface method as described previously (Stoppini, et al. 1991; Bahr, et al. 1995; Zhongrin, et al. 2000). The”, “For the first 2 days in vitro (DIV) cultures were maintained in 25% horse serum, 50% Basal Media-Eagle (BEM), 25% Eagle's Balanced Salt Solution (EBSS), 25 mM HEPES, 1 mM glutamine, 28 mM glucose, pH 7.2, at 32° C. in a 5% CO2 humidified atmosphere. The slice cultures were then switched to 25% horse serum, 50% BEM and EBSS modified so that the potassium concentration was 2.66 mM, for another 5 DIV.” left out
Immobilized protein G (Pierce, Rockford, Ill.), 20 μl, was mixed in 50 mM Tris, pH 7.4, 150 mM NACl, 10 mM NaF, 1.0 mM Na3VO4, 2.0 mM EGTA, 1 mM PMSF, 5 μg/ml leupeptin, 5 μg/ml aprotinin, 2 μg/ml pepstatin, 25 μg/ml phosphoramidon. After incubation at 4° C. overnight, the mixture was centrifuged and the beads were washed three times. The beads were then resuspended in 50 mM Tris, pH 7.4, containing 10 mM MgCl2. MAPK substrate peptide (UBI, Lake Placid, N.Y.) was employed for the MAPK assay. […]

[4] = test system: tau; experiment: Tau phosphorylation by radioimmuno-dot-blots and 125I-Western blots of slice homogenates; format: cell-based, rat; settings: 0.3 mM glutamate, 1 h
Method: as §1, with “The” for “Organotypic cultures of rat hippocampal slices were prepared from 20-30 day old Wistar rats and cultured with the interface method as described previously (Stoppini, et al. 1991; Bahr, et al. 1995; Zhongrin, et al. 2000). The”, “For the first 2 days in vitro (DIV) cultures were maintained in 25% horse serum, 50% Basal Media-Eagle (BEM), 25% Eagle's Balanced Salt Solution (EBSS), 25 mM HEPES, 1 mM glutamine, 28 mM glucose, pH 7.2, at 32° C. in a 5% CO2 humidified atmosphere. The slice cultures were then switched to 25% horse serum, 50% BEM and EBSS modified so that the potassium concentration was 2.66 mM, for another 5 DIV.” left out
Triplicate samples of each homogenate were applied to nitrocellulose membrane (Schleicher and Schuell, Keene, N.H.) and dried at 37° C.

T1 sequence (P63331 whole entry): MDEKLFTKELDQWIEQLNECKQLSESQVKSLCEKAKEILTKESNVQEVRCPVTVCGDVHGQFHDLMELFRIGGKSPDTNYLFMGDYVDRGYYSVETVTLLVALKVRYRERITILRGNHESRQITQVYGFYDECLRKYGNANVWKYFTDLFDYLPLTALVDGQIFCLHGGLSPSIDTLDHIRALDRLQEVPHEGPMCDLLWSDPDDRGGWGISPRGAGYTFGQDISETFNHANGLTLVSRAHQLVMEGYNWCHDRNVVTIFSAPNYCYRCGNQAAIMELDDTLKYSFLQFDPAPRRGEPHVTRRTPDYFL

## C[C@]12N[C@H](Cc3ccccc31)c1ccccc12 [MK801]
[1]; after 0.3 mM glutamate 1 h, 10 μM Memantine or 15 μM MK801
  effect on PP-2A activity: no effect
[2]; after 0.3 mM glutamate, fresh medium with or without 10 μM Memantine or 15 μM MK801
  CaMKII activity after replacement of glutamate: restored the CaMKII activity to normal level
[3]; after 0.3 mM glutamate, 10 μM Memantine or 15 μM MK801
  effect on MAP kinase activity: no effect

## N[C@@H](CCC(=O)O)C(=O)O [glutamate]
[1]; 0.3 mM glutamate, 1 h
  change in PP-2A activity: did not induce any detectable change; also recorded: not accompanied by any changes; also recorded: without any effect
[2]; 0.3 mM glutamate, 1 h
  CaMKII activity as % of control: ~180%
  change in CaMKII activity: marked increase
[3]; 0.3 mM glutamate, 1 h
  change in MAPK activity: did not induce any detectable change; also recorded: not accompanied by any changes; also recorded: without any effect
[4]
  phosphorylation of tau at Ser-262: increased markedly
